# In patent US20120190752A1, “EXO-S-MECAMYLAMINE METHOD, USE, AND COMPOUND FOR TREATMENT” (Targacept Inc., priority 2009, published 2012):
# System: subjects with major depressive disorder (MDD) who were inadequate responders to citalopram
# Assay: SIS (Sheehan Irritability Scale), total and individual items, Phase 2b add-on trial
# Type: in vivo, human
# Design: SIS Adj. Mean change / SIS total score change Adjusted Mean / SIS Anger With Others change Adjusted Mean / SIS Anger With Self change Adjusted Mean / SIS Edginess change Adjusted Mean / SIS Irritability change Adjusted Mean / SIS Moodiness change Adjusted Mean / SIS Temper change Adjusted Mean: scale not given here
# Procedure: In more detail, a multi-center double-blind, randomized, placebo-controlled, parallel group, flexible dose titration study of TC-5214 as adjunctive therapy in subjects with major depressive disorder (MDD) who were inadequate responders to citalopram was conducted in centers in the US and India. The study consisted of a screening period, baseline/washout period, open-label phase, double-blind phase, and a follow-up visit. Subject participation in the study could continue for up to 16 weeks of treatment. Following a washout period of up to 28 days for other antidepressants, subjects with MDD and a MADRS total score >/=28 and a Clinical Global Impression-Severity (CGI-S) score >/=4 were enrolled on Day 1 into an open-label citalopram-only phase of the study. This phase lasted 8 weeks, with citalopram (CIT) dose increased from a once-daily dose of 20 mg (Day 1 through Week 4) to 40 mg (Week 4 through Week 8). A total of 579 subjects entered the open-label citalopram phase. At Week 8, subjects who tolerated 40 mg CIT, but whose MADRS score was reduced <50% from baseline and no lower than 17, and CGI-S≧4, were considered inadequate responders. These subjects (n=270) were randomized in a double-blind fashion to receive either placebo or TC-5214-23 as add-on therapy to continued CIT. The double-blind phase of the study also lasted 8 weeks (Week 8 to Week 16). Study drug, TC-5214-23 or placebo, was started at 2 mg daily (1 mg twice per day [BID] dosing), added on to continuing CIT (40 mg PO qd). After 2 weeks of treatment, the dose of TC-5214 could be increased to 4 mg (2 mg BID) or continued unchanged, with up-titration based upon good tolerability and inadequate therapeutic response. After a further 2 weeks, the dose of TC-5214 could be increased again to 8 mg (4 mg BID) if judged appropriate by the investigator, based upon good tolerability and inadequate therapeutic response. At any time during the double-blind phase of the study, placebo or TC-5214-23 could be reduced to the previous dose level following the emergence of unacceptable adverse events (AEs). […] At this follow-up, any signs or symptoms of relapse were evaluated. If a subject was prematurely discontinued from the study between Week 8 and Week 16 for any reason, the investigator was to make every effort to perform all evaluations as per protocol, assuming the subject had reached the end of the double-blind add-on treatment phase. These evaluations were to be made as soon as possible and within 2 weeks of discontinuation. […] There was no meaningful difference in results as a function of age, gender, site, or smoking status. [table] With regard to efficacy endpoints, the following tables present efficacy used in the ITT (Intent-to-Treat) and PP (Per Protocol) populations unless otherwise specific. The primary inference was based upon Week 16 visit using the ITT population. Change from baseline was obtained by subtracting the baseline values from the individual on-treatment values. Change from Week 16 was obtained by subtracting the Week 16 values from the individual follow-up visit (Week 18/19) values. If either the baseline or Week 16 or on-treatment or follow-up value was missing, the change from baseline or Week 16 value was also set to missing. To account for missing data, the last observation carry forward (LOCF) method was used for the ITT and PP populations. Thus, the last available on-therapy observation for a subject, including the observation at premature discontinuation, was used to estimate subsequent missing data points. For efficacy, baseline data were collected at Week 8 in the double-blind augmentation phase electronic case report form pages. For SIS, the endpoint was the change from Week 8 (double-blind baseline) to Week 16 of the SIS. Changes were analyzed using ANCOVA. Each SIS item score was also analyzed using ANCOVA. […]
# [1] = ITT population, Double Blind Week 16 LOCF, change from DB baseline
# [2] = ITT population, Double Blind Week 18 LOCF (Follow-up), change from Week 16
# [3] = PP population, Double Blind Week 16 LOCF, change from DB baseline
# [4] = PP population, Double Blind Week 18 LOCF (Follow-up), change from Week 16
compound,measurement,setting,value
CN[C@@]1(C)[C@@H]2CC[C@@H](C2)C1(C)C [TC5214],SIS Anger With Others change Adjusted Mean,[1],−2.56
same,SIS Anger With Others change Mean Difference between TC-5214 and Placebo,[1],1.22
same,SIS Anger With Self change Adjusted Mean,[1],−2.29
same,SIS Anger With Self change Mean Difference between TC-5214 and Placebo,[1],1.01
same,SIS Edginess change Adjusted Mean,[1],−2.55
same,SIS Edginess change Mean Difference between TC-5214 and Placebo,[1],1.14
same,SIS Frustration change Adjusted Mean,[1],−2.74
same,SIS Frustration change Mean Difference between TC-5214 and Placebo,[1],1.42
same,SIS Irritability change Adjusted Mean,[1],−2.74
same,SIS Irritability change Mean Difference between TC-5214 and Placebo,[1],1.38
same,SIS Moodiness change Adjusted Mean,[1],−3.00
same,SIS Moodiness change Mean Difference between TC-5214 and Placebo,[1],1.51
same,SIS Temper change Adjusted Mean,[1],−2.37
same,SIS Temper change Mean Difference between TC-5214 and Placebo,[1],1.19
same,SIS Anger With Others change Adjusted Mean,[2],−0.07
same,SIS Anger With Others change Mean Difference between TC-5214 and Placebo,[2],0.01
same,SIS Anger With Self change Adjusted Mean,[2],−0.07
same,SIS Anger With Self change Mean Difference between TC-5214 and Placebo,[2],0.09
same,SIS Edginess change Adjusted Mean,[2],−0.24
same,SIS Edginess change Mean Difference between TC-5214 and Placebo,[2],0.01
same,SIS Frustration change Adjusted Mean,[2],−0.09
same,SIS Frustration change Mean Difference between TC-5214 and Placebo,[2],−0.06
same,SIS Irritability change Adjusted Mean,[2],−0.14
same,SIS Irritability change Mean Difference between TC-5214 and Placebo,[2],−0.08
same,SIS Moodiness change Adjusted Mean,[2],−0.13
same,SIS Moodiness change Mean Difference between TC-5214 and Placebo,[2],−0.05
same,SIS Temper change Adjusted Mean,[2],−0.11
same,SIS Temper change Mean Difference between TC-5214 and Placebo,[2],−0.07
same,SIS Anger With Others change Adjusted Mean,[3],−2.77
same,SIS Anger With Others change Mean Difference between TC-5214 and Placebo,[3],1.42
same,SIS Anger With Self change Adjusted Mean,[3],−2.54
same,SIS Anger With Self change Mean Difference between TC-5214 and Placebo,[3],1.13
same,SIS Edginess change Adjusted Mean,[3],−2.81
same,SIS Edginess change Mean Difference between TC-5214 and Placebo,[3],1.36
same,SIS Frustration change Adjusted Mean,[3],−3.00
same,SIS Frustration change Mean Difference between TC-5214 and Placebo,[3],1.59
same,SIS Irritability change Adjusted Mean,[3],−3.00
same,SIS Irritability change Mean Difference between TC-5214 and Placebo,[3],1.58
same,SIS Moodiness change Adjusted Mean,[3],−3.34
same,SIS Moodiness change Mean Difference between TC-5214 and Placebo,[3],1.71
same,SIS Temper change Adjusted Mean,[3],−2.55
same,SIS Temper change Mean Difference between TC-5214 and Placebo,[3],1.36
same,SIS Anger With Others change Adjusted Mean,[4],−0.10
same,SIS Anger With Others change Mean Difference between TC-5214 and Placebo,[4],0.03
same,SIS Anger With Self change Adjusted Mean,[4],−0.09
same,SIS Anger With Self change Mean Difference between TC-5214 and Placebo,[4],0.11
same,SIS Edginess change Adjusted Mean,[4],−0.27
same,SIS Edginess change Mean Difference between TC-5214 and Placebo,[4],0.05
same,SIS Frustration change Adjusted Mean,[4],−0.09
same,SIS Frustration change Mean Difference between TC-5214 and Placebo,[4],−0.04
same,SIS Irritability change Adjusted Mean,[4],−0.14
same,SIS Irritability change Mean Difference between TC-5214 and Placebo,[4],−0.07
same,SIS Moodiness change Adjusted Mean,[4],−0.13
same,SIS Moodiness change Mean Difference between TC-5214 and Placebo,[4],−0.01
same,SIS Temper change Adjusted Mean,[4],−0.14
same,SIS Temper change Mean Difference between TC-5214 and Placebo,[4],−0.00
